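The compound was tested at five concentrations on cells cultured in 96-well plates, with a 48-hour exposure period. The concentration for 50% growth inhibition is given as GI50. TGI marks complete inhibition of growth.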
Assays:
Assay in all cases: NCI tumour cell line growth inhibition, 48 h
NCI/ADR-RES ovarian = test system: NCI/ADR-RES ovarian
M14 melanoma = test system: M14 melanoma
COLO 205 colon = test system: COLO 205 colon
NCI-H460 lung = test system: NCI-H460 lung
SNB-19 CNS = test system: SNB-19 CNS
NCI-H23 lung = test system: NCI-H23 lung
SN12C renal = test system: SN12C renal
SF-295 CNS = test system: SF-295 CNS
LOX IMVI melanoma = test system: LOX IMVI melanoma
A549 NSCLC = test system: A549 NSCLC
NCI-H522 lung = test system: NCI-H522 lung
MCF7 breast = test system: MCF7 breast
BT-549 breast = test system: BT-549 breast
MDA-N = test system: MDA-N
OVCAR-4 ovarian = test system: OVCAR-4 ovarian
SF-539 CNS = test system: SF-539 CNS
RXF 393 renal = test system: RXF 393 renal
IGROV1 ovarian = test system: IGROV1 ovarian
MDA-MB-435 = test system: MDA-MB-435
MDA-MB-231 breast = test system: MDA-MB-231 breast
HOP-62 NSCLC = test system: HOP-62 NSCLC
SR leukemia = test system: SR leukemia
UACC-257 melanoma = test system: UACC-257 melanoma
HL-60(TB) leukemia = test system: HL-60(TB) leukemia
OVCAR-8 ovarian = test system: OVCAR-8 ovarian
KM12 colon = test system: KM12 colon
UO-31 renal = test system: UO-31 renal
HOP-92 NSCLC = test system: HOP-92 NSCLC
HT29 colon = test system: HT29 colon
MOLT-4 leukemia = test system: MOLT-4 leukemia
ACHN renal = test system: ACHN renal
A498 renal = test system: A498 renal
OVCAR-5 ovarian = test system: OVCAR-5 ovarian
SK-MEL-2 melanoma = test system: SK-MEL-2 melanoma
CAKI-1 renal = test system: CAKI-1 renal
SF-268 CNS = test system: SF-268 CNS
SK-MEL-5 melanoma = test system: SK-MEL-5 melanoma
HCT-116 colon = test system: HCT-116 colon
U251 CNS = test system: U251 CNS
T-47D breast = test system: T-47D breast
SK-OV-3 ovarian = test system: SK-OV-3 ovarian
786-0 renal = test system: 786-0 renal
CCRF-CEM leukemia = test system: CCRF-CEM leukemia
PC-3 prostate = test system: PC-3 prostate
DU-145 prostate = test system: DU-145 prostate
SK-MEL-28 melanoma = test system: SK-MEL-28 melanoma
SW-620 colon = test system: SW-620 colon
EKVX NSCLC = test system: EKVX NSCLC
K-562 leukemia = test system: K-562 leukemia
HCC-2998 colon = test system: HCC-2998 colon
RPMI-8226 leukemia = test system: RPMI-8226 leukemia
HCT-15 colon = test system: HCT-15 colon
TK-10 renal = test system: TK-10 renal
OVCAR-3 ovarian = test system: OVCAR-3 ovarian
NCI-H226 lung = test system: NCI-H226 lung
HS 578T breast = test system: HS 578T breast
MALME-3M melanoma = test system: MALME-3M melanoma
UACC-62 melanoma = test system: UACC-62 melanoma
SNB-75 CNS = test system: SNB-75 CNS

## NC1=NCCN1CC(=O)O
NCI/ADR-RES ovarian
  GI50: > 10000 µM
  TGI: > 10000 µM
M14 melanoma
  GI50: > 10000 µM
  TGI: > 10000 µM
COLO 205 colon
  GI50: > 10000 µM
  TGI: > 10000 µM
NCI-H460 lung
  GI50: > 10000 µM
  TGI: > 10000 µM
SNB-19 CNS
  GI50: > 10000 µM
  TGI: > 10000 µM
NCI-H23 lung
  GI50: > 10000 µM
  TGI: > 10000 µM
SN12C renal
  GI50: > 10000 µM
  TGI: > 10000 µM
SF-295 CNS
  TGI: > 10000 µM
LOX IMVI melanoma
  GI50: > 10000 µM
  TGI: > 10000 µM
A549 NSCLC
  GI50: > 10000 µM
  TGI: > 10000 µM
NCI-H522 lung
  TGI: > 10000 µM
MCF7 breast
  GI50: > 10000 µM
  TGI: > 10000 µM
BT-549 breast
  GI50: > 10000 µM
  TGI: > 10000 µM
MDA-N
  TGI: > 10000 µM
OVCAR-4 ovarian
  GI50: > 10000 µM
  TGI: > 10000 µM
SF-539 CNS
  TGI: > 1000 µM
RXF 393 renal
  GI50: > 10000 µM
  TGI: > 10000 µM
IGROV1 ovarian
  GI50: > 10000 µM
  TGI: > 10000 µM
MDA-MB-435
  GI50: > 10000 µM
  TGI: > 10000 µM
MDA-MB-231 breast
  GI50: > 10000 µM
  TGI: > 10000 µM
HOP-62 NSCLC
  GI50: > 10000 µM
  TGI: > 10000 µM
SR leukemia
  GI50: > 10000 µM
  TGI: > 10000 µM
UACC-257 melanoma
  GI50: > 10000 µM
  TGI: > 10000 µM
HL-60(TB) leukemia
  TGI: > 1000 µM
OVCAR-8 ovarian
  GI50: > 10000 µM
  TGI: > 10000 µM
KM12 colon
  TGI: > 10000 µM
UO-31 renal
  GI50: > 10000 µM
  TGI: > 10000 µM
HOP-92 NSCLC
  GI50: > 10000 µM
  TGI: > 10000 µM
HT29 colon
  GI50: > 10000 µM
  TGI: > 10000 µM
MOLT-4 leukemia
  GI50: > 10000 µM
  TGI: > 10000 µM
ACHN renal
  GI50: > 10000 µM
  TGI: > 10000 µM
A498 renal
  GI50: > 10000 µM
  TGI: > 10000 µM
OVCAR-5 ovarian
  GI50: > 10000 µM
  TGI: > 10000 µM
SK-MEL-2 melanoma
  GI50: > 10000 µM
  TGI: > 10000 µM
CAKI-1 renal
  TGI: > 10000 µM
SF-268 CNS
  GI50: > 1000 µM
  TGI: > 10000 µM
SK-MEL-5 melanoma
  GI50: > 10000 µM
  TGI: > 10000 µM
HCT-116 colon
  GI50: > 10000 µM
  TGI: > 10000 µM
U251 CNS
  GI50: > 10000 µM
  TGI: > 10000 µM
T-47D breast
  GI50: > 10000 µM
  TGI: > 10000 µM
SK-OV-3 ovarian
  GI50: > 10000 µM
  TGI: > 10000 µM
786-0 renal
  GI50: > 10000 µM
  TGI: > 10000 µM
CCRF-CEM leukemia
  GI50: > 10000 µM
  TGI: > 10000 µM
PC-3 prostate
  GI50: > 10000 µM
  TGI: > 10000 µM
DU-145 prostate
  GI50: > 10000 µM
  TGI: > 10000 µM
SK-MEL-28 melanoma
  GI50: > 10000 µM
  TGI: > 10000 µM
SW-620 colon
  GI50: > 10000 µM
  TGI: > 10000 µM
EKVX NSCLC
  TGI: > 10000 µM
K-562 leukemia
  TGI: > 1000 µM
HCC-2998 colon
  GI50: > 10000 µM
  TGI: > 10000 µM
RPMI-8226 leukemia
  GI50: > 10000 µM
  TGI: > 10000 µM
HCT-15 colon
  GI50: > 10000 µM
  TGI: > 10000 µM
TK-10 renal
  GI50: > 10000 µM
  TGI: > 10000 µM
OVCAR-3 ovarian
  GI50: > 10000 µM
  TGI: > 10000 µM
NCI-H226 lung
  GI50: > 10000 µM
  TGI: > 10000 µM
HS 578T breast
  GI50: > 1000 µM
  TGI: > 10000 µM
MALME-3M melanoma
  TGI: > 1000 µM
UACC-62 melanoma
  GI50: > 10000 µM
  TGI: > 10000 µM

## COc1ccc(NC(=S)N/N=C(\C)c2nc3ncccc3[nH]2)cc1
NCI/ADR-RES ovarian
  TGI: > 100 µM
COLO 205 colon
  TGI: > 100 µM
NCI-H460 lung
  TGI: 37.9 µM
SNB-19 CNS
  TGI: > 100 µM
NCI-H23 lung
  TGI: > 100 µM
SN12C renal
  TGI: > 100 µM
SF-295 CNS
  TGI: > 100 µM
LOX IMVI melanoma
  TGI: 28.7 µM
A549 NSCLC
  TGI: > 100 µM
NCI-H522 lung
  TGI: 37.5 µM
MCF7 breast
  TGI: 21.6 µM
BT-549 breast
  TGI: 42.3 µM
MDA-N
  TGI: > 100 µM
OVCAR-4 ovarian
  TGI: > 100 µM
SF-539 CNS
  TGI: 13.7 µM
IGROV1 ovarian
  TGI: 53.6 µM
MDA-MB-435
  TGI: > 100 µM
MDA-MB-231 breast
  TGI: > 100 µM
HOP-62 NSCLC
  TGI: 59.3 µM
SR leukemia
  TGI: > 100 µM
UACC-257 melanoma
  TGI: > 100 µM
HL-60(TB) leukemia
  TGI: 65.8 µM
OVCAR-8 ovarian
  TGI: 63.3 µM
KM12 colon
  TGI: > 100 µM
UO-31 renal
  TGI: 12 µM
HOP-92 NSCLC
  TGI: 37.7 µM
HT29 colon
  TGI: > 100 µM
MOLT-4 leukemia
  TGI: 43.9 µM
ACHN renal
  TGI: > 100 µM
A498 renal
  TGI: 98.2 µM
OVCAR-5 ovarian
  TGI: > 100 µM
SK-MEL-2 melanoma
  TGI: > 100 µM
CAKI-1 renal
  TGI: > 100 µM
SF-268 CNS
  TGI: > 100 µM
SK-MEL-5 melanoma
  TGI: 29.1 µM
HCT-116 colon
  TGI: 24.8 µM
U251 CNS
  TGI: > 100 µM
T-47D breast
  TGI: 92.4 µM
SK-OV-3 ovarian
  TGI: > 100 µM
786-0 renal
  TGI: > 100 µM
CCRF-CEM leukemia
  TGI: 24.5 µM
PC-3 prostate
  TGI: 45.2 µM
DU-145 prostate
  TGI: > 100 µM
SK-MEL-28 melanoma
  TGI: > 100 µM
SW-620 colon
  TGI: > 100 µM
EKVX NSCLC
  TGI: > 100 µM
K-562 leukemia
  TGI: > 100 µM
HCC-2998 colon
  TGI: > 100 µM
RPMI-8226 leukemia
  TGI: > 100 µM
HCT-15 colon
  TGI: > 100 µM
TK-10 renal
  TGI: 21.1 µM
OVCAR-3 ovarian
  TGI: 6.9 µM
NCI-H226 lung
  TGI: 21.7 µM
HS 578T breast
  TGI: > 100 µM
SNB-75 CNS
  TGI: 70.6 µM
MALME-3M melanoma
  TGI: > 100 µM
UACC-62 melanoma
  TGI: 73.2 µM

## Nc1nc(Nc2ccccc2)sc1C(=O)c1cccs1
NCI/ADR-RES ovarian
  TGI: 82 µM
M14 melanoma
  TGI: 36.2 µM
COLO 205 colon
  TGI: 22.7 µM
NCI-H460 lung
  TGI: 24.5 µM
SNB-19 CNS
  TGI: 46.5 µM
NCI-H23 lung
  TGI: 38.1 µM
SN12C renal
  TGI: 38.3 µM
SF-295 CNS
  TGI: 66.6 µM
LOX IMVI melanoma
  TGI: 27.3 µM
A549 NSCLC
  TGI: 41.7 µM
NCI-H522 lung
  TGI: 25.9 µM
MCF7 breast
  TGI: 24.2 µM
BT-549 breast
  TGI: 35.7 µM
MDA-N
  TGI: 46.4 µM
OVCAR-4 ovarian
  TGI: 40.6 µM
SF-539 CNS
  TGI: 25.5 µM
RXF 393 renal
  TGI: 20.2 µM
IGROV1 ovarian
  TGI: 36.3 µM
MDA-MB-435
  TGI: 29.4 µM
MDA-MB-231 breast
  TGI: 68.6 µM
HOP-62 NSCLC
  TGI: > 65.5 µM
SR leukemia
  TGI: 11.2 µM
UACC-257 melanoma
  TGI: 32.5 µM
HL-60(TB) leukemia
  TGI: 12.5 µM
OVCAR-8 ovarian
  TGI: 78.4 µM
KM12 colon
  TGI: 14.9 µM
UO-31 renal
  TGI: 36.2 µM
HOP-92 NSCLC
  TGI: 71 µM
HT29 colon
  TGI: 18.2 µM
MOLT-4 leukemia
  TGI: 43.9 µM
ACHN renal
  TGI: > 69.8 µM
A498 renal
  TGI: 38.8 µM
OVCAR-5 ovarian
  TGI: 32.1 µM
SK-MEL-2 melanoma
  TGI: 29.6 µM
CAKI-1 renal
  TGI: 62.3 µM
SF-268 CNS
  TGI: 46.6 µM
SK-MEL-5 melanoma
  TGI: 15.9 µM
HCT-116 colon
  TGI: 18.2 µM
U251 CNS
  TGI: 40.8 µM
T-47D breast
  TGI: > 59.3 µM
SK-OV-3 ovarian
  TGI: 90.2 µM
786-0 renal
  TGI: 28.6 µM
CCRF-CEM leukemia
  TGI: 16.6 µM
PC-3 prostate
  TGI: 41.9 µM
DU-145 prostate
  TGI: 30.8 µM
SK-MEL-28 melanoma
  TGI: > 62.4 µM
SW-620 colon
  TGI: 37.7 µM
EKVX NSCLC
  TGI: 31.8 µM
K-562 leukemia
  TGI: 55.7 µM
HCC-2998 colon
  TGI: 32.6 µM
RPMI-8226 leukemia
  TGI: 37 µM
HCT-15 colon
  TGI: 27.2 µM
TK-10 renal
  TGI: 46.8 µM
OVCAR-3 ovarian
  TGI: > 28.2 µM
NCI-H226 lung
  TGI: 39.7 µM
HS 578T breast
  TGI: 43.3 µM
MALME-3M melanoma
  TGI: 37.3 µM
UACC-62 melanoma
  TGI: 31 µM
